# Assay results: ChEMBL document CHEMBL1133757, “Reporter affinity labels: an o-phthalaldehyde derivative of beta-naltrexamine as a fluorogenic ligand for opioid receptors” (J Med Chem, 2000)
# pKi: −log10 of the molar value.
# How the values were obtained:
# [1] = target: Delta-type opioid receptor (Homo sapiens, UniProt P41143); assay: Inhibition of [3H]- diprenorphine binding to Opioid receptor delta 1
# [2] = target: Kappa-type opioid receptor (Homo sapiens, UniProt P41145); assay: Inhibition of [3H]diprenorphine binding to Opioid receptor kappa 1
# Kappa-type opioid receptor, sequence (P41145 whole entry): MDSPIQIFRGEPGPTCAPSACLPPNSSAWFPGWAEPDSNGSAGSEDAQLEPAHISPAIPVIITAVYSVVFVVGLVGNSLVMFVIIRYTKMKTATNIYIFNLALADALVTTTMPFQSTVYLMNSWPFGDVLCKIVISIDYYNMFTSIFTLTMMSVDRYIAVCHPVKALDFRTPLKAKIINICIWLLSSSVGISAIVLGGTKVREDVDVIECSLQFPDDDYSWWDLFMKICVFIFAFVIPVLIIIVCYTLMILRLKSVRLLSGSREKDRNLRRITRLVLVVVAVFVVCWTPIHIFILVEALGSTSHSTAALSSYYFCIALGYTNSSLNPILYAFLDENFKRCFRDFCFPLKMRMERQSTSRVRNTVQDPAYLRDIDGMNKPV
# Mu-type opioid receptor = Mu-type opioid receptor (Homo sapiens, UniProt P35372); assay: Inhibition of [3H]- diprenorphine binding to Opioid receptor mu 1 (83 fmol/mg protein) stably expressed in membranes from CHO cells; format: cell membranes
# Mu-type opioid receptor, sequence (P35372 whole entry): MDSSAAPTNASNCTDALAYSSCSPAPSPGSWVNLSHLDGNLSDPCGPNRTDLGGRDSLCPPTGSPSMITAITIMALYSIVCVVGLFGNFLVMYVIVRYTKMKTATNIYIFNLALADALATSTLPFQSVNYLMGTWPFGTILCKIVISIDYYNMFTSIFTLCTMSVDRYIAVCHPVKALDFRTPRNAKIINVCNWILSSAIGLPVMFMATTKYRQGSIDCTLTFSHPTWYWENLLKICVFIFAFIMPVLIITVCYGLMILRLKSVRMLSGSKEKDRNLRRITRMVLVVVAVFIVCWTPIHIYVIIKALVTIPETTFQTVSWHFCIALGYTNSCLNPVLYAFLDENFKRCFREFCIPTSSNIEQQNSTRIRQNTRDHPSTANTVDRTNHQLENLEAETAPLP
# Delta-type opioid receptor, sequence (P41143 whole entry): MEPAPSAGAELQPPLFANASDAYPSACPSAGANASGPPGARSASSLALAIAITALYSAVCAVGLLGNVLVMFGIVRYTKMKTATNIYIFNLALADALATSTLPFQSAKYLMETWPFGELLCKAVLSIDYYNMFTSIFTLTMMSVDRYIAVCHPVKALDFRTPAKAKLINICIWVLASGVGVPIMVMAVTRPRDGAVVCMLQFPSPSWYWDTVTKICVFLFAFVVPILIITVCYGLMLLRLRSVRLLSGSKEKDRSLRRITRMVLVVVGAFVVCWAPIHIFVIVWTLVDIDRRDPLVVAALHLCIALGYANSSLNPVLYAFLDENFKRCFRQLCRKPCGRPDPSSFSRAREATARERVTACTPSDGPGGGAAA
compound,measurement,setting,value
O=Cc1ccc(C(=O)NCC(=O)N[C@@H]2CC[C@@]3(O)[C@H]4Cc5ccc(O)c6c5C3(CCN4CC3CC3)C2O6)cc1C=O (stereo partly drawn),pKi,[1],8.59
same,pKi,[2],9.15
same,pKi,Mu-type opioid receptor,9.35
